Measurements from DBAASP.
Converted amounts (≈) assume the structure as drawn. “And” between values parts separate entries of the source, which are not always exact repeats. Equal values may be shown once.

Key:
Experiment in all cases: ≥ marks a high value that may be exact or a test limit, other limits are often not marked, values filed in µg/mL are converted to µM
[1] = system: Staphylococcus aureus ATCC 29213
[2] = system: Staphylococcus aureus ATCC 33591
[3] = system: Staphylococcus epidermidis ATCC 12228
[4] = system: Escherichia coli ATCC 11229
[5] = system: Staphylococcus aureus ATCC 25923
[6] = system: Klebsiella pneumoniae ATCC 13866
[7] = system: Pseudomonas aeruginosa ATCC 27853
[8] = system: Staphylococcus epidermidis NBRC 12993
[9] = system: Aspergillus oryzae NBRC 100959
[10] = system: Micrococcus luteus NBRC 3333
[11] = system: Escherichia coli NBRC 3972
[12] = system: Candida viswanathii NBRC 10321
[13] = system: Pseudomonas putida NBRC 100650
Cryptococcus neoformans = system: Cryptococcus neoformans
Escherichia coli SBS 363 = system: Escherichia coli SBS 363
Cladosporium sp. = system: Cladosporium sp.
Penicillium expansum = system: Penicillium expansum
Micrococcus luteus A270 = system: Micrococcus luteus A270
[14] = system: Staphylococcus aureus ATCC 43300
[15] = system: Lacticaseibacillus rhamnosus 1.0911
[16] = system: Lacticaseibacillus rhamnosus 1.0925
[17] = system: Lacticaseibacillus rhamnosus 1.0386
[18] = system: Lacticaseibacillus rhamnosus 1.0385
[19] = system: Lacticaseibacillus rhamnosus 7469
[20] = system: Lactiplantibacillus plantarum 8014
Escherichia coli UB1005 = system: Escherichia coli UB1005
[21] = system: Escherichia coli ATCC 25922
[22] = system: Acinetobacter baumannii BCRC 14B0100
[23] = system: Escherichia coli ATCC 35218
[24] = system: Salmonella enterica subsp. enterica serovar Typhimurium ATCC 14028
[25] = system: Enterococcus faecalis ATCC 51299
[26] = system: Klebsiella pneumoniae ATCC 49472
[27] = system: Staphylococcus aureus ATCC BAA-2312
[28] = system: Staphylococcus aureus ATCC 12600
[29] = system: Klebsiella pneumoniae ATCC BAA-2814

Compound: CC[C@H](C)[C@H](NC(=O)CN)C(=O)N[C@@H](C)C(=O)NCC(=O)N[C@@H](CC(C)C)C(=O)N[C@@H](CC(C)C)C(=O)N[C@@H](CCCN=C(N)N)C(=O)N[C@@H](CO)C(=O)N[C@@H](Cc1ccccc1)C(=O)N[C@H](C(=O)N[C@@H](CCCN=C(N)N)C(=O)N[C@@H](CCSC)C(=O)N[C@@H](CC(C)C)C(=O)N[C@@H](C)C(=O)N[C@@H](CCCCN)C(=O)N[C@H](C(=O)N[C@@H](CCSC)C(=O)NCC(=O)NCC(=O)O)[C@@H](C)CC)C(C)C [GIAGLLRSFVRMLAKIMGG]
- MIC [1]: 32.2 µM (≈ 64 µg/mL)
- MIC [2]: ≥ 64.3 µM
- MIC [3]: 32.2 µM (≈ 64 µg/mL)
- MIC [4]: ≥ 32.2 µM
- MIC [5]: 32.2 µM (≈ 64 µg/mL)
- MIC [6]: ≥ 32.2 µM
- MIC [7]: 8.04 µM (≈ 16 µg/mL)

Compound: CC[C@H](C)[C@H](NC(=O)[C@H](CCCCN)NC(=O)[C@@H](N)CCCN=C(N)N)C(=O)N[C@@H](CCCCN)C(=O)N[C@H](C(=O)N[C@@H](Cc1ccc(O)cc1)C(=O)N[C@@H](CC(C)C)C(=O)N[C@@H](CCCN=C(N)N)C(=O)N[C@@H](CCCN=C(N)N)C(=O)N[C@@H](CCSC)C(=O)N[C@@H](CCCCN)C(=O)O)C(C)C [RKIKVYLRRMK]
- MIC [8]: ≥ 33.5 µM
- MIC [9]: 8.38 µM (≈ 12.5 µg/mL)
- MIC [10]: 8.38 µM (≈ 12.5 µg/mL)
- MIC [11]: 8.38 µM (≈ 12.5 µg/mL)
- MIC [12]: 8.38 µM (≈ 12.5 µg/mL)
- MIC [13]: ≥ 33.5 µM

Compound: CSCC[C@H](NC(=O)CNC(=O)[C@H](Cc1ccccc1)NC(=O)[C@H](Cc1ccccc1)NC(=O)CNC(=O)[C@H](C)NC(=O)[C@H](C)NC(=O)[C@@H]1CCCN1C(=O)[C@H](C)N)C(=O)N[C@@H](CCCN=C(N)N)C(=O)O [APAAGFFGMR]
- MIC (Cryptococcus neoformans): ≥ 164 µM
- MIC (Escherichia coli SBS 363): ≥ 82 µM
- MIC (Cladosporium sp.): ≥ 164 µM
- MIC (Penicillium expansum): ≥ 164 µM
- MIC (Micrococcus luteus A270): ≥ 164 µM
- MIC [7]: 164 µM and > 82 µM

Compound: NC(=O)[C@H](CCCN=C(N)N)NC(=O)[C@H](CCCN=C(N)N)NC(=O)[C@H](Cc1c[nH]c2ccccc12)NC(=O)[C@H](CO)NC(=O)[C@H](Cc1c[nH]c2ccccc12)NC(=O)[C@H](Cc1c[nH]c2ccccc12)NC(=O)[C@H](Cc1c[nH]c2ccccc12)NC(=O)[C@H](CO)NC(=O)[C@H](Cc1c[nH]c2ccccc12)NC(=O)[C@H](CCCN=C(N)N)NC(=O)[C@@H](N)CCCN=C(N)N [RRWSWWWSWRR]
- MIC [14]: 2 µM (≈ 3.49 µg/mL)
- MIC [15]: ≥ 64 µM
- MIC [16]: ≥ 64 µM
- MIC [17]: ≥ 64 µM
- MIC [3]: 4 µM (≈ 6.99 µg/mL)
- MIC [18]: ≥ 64 µM
- MIC [19]: ≥ 64 µM
- MIC [20]: ≥ 64 µM
- MIC (Escherichia coli UB1005): 2 µM (≈ 3.49 µg/mL)
- MIC [7]: 4 µM (≈ 6.99 µg/mL)

Compound: CC[C@H](C)[C@H](NC(=O)[C@H](CCCN=C(N)N)NC(=O)[C@H](CCC(N)=O)NC(=O)[C@@H](NC(=O)[C@@H](NC(=O)[C@H](CCCN=C(N)N)NC(=O)[C@H](CCCCN)NC(C)=O)[C@@H](C)CC)C(C)C)C(=O)N[C@@H](CCCCN)C(=O)N[C@@H](CC(=O)O)C(=O)N[C@@H](Cc1ccccc1)C(=O)N[C@@H](CC(C)C)C(=O)N[C@@H](CCCN=C(N)N)C(=O)N[C@@H](C)C(=O)NCC(=O)N1CCC[C@H]1C(=O)N[C@@H](CCCN=C(N)N)C(=O)N[C@@H](CCCN=C(N)N)C(=O)N[C@@H](Cc1c[nH]c2ccccc12)C(=O)N[C@@H](Cc1c[nH]c2ccccc12)C(=O)N[C@@H](CCCN=C(N)N)C(=O)N[C@@H](Cc1c[nH]c2ccccc12)C(N)=O [KRIVQRIKDFLRAGPRRWWRW]
- MIC [21]: 1.42 µM and 0.708 µM
- MIC [5]: 1.42 µM and 0.708 µM
- MIC [22]: 0.708 µM and 1.42 µM
- MIC [7]: 0.708 µM and 1.42 µM

Compound: CC[C@H](C)[C@H](NC(=O)[C@H](CCC(N)=O)NC(=O)[C@H](CO)NC(=O)[C@H](C)NC(=O)[C@H](CC(C)C)NC(=O)[C@H](Cc1cnc[nH]1)NC(=O)[C@@H](NC(=O)[C@H](CC(C)C)NC(=O)[C@H](CC(C)C)NC(=O)CNC(=O)[C@H](CCCCN)NC(=O)CNC(=O)[C@H](C)NC(=O)CNC(=O)[C@H](CCCCN)NC(=O)[C@H](CC(C)C)NC(=O)[C@H](CC(C)C)NC(=O)[C@H](CC(=O)O)NC(=O)[C@H](CC(C)C)NC(=O)[C@H](CC(C)C)NC(=O)CN)[C@@H](C)O)C(N)=O [GLLDLLKGAGKGLLTHLASQI]
- MIC [23]: ≥ 62.5 µM
- MIC [24]: 250 µM (≈ 529 µg/mL)
- MIC [25]: ≥ 250 µM
- MIC [26]: ≥ 125 µM
- MIC [27]: ≥ 250 µM
- MIC [28]: ≥ 250 µM
- MIC [29]: ≥ 125 µM
